# Where no end group is shown, it is not given here. SMCC = N-(4-carboxy-cyclohexyl-methyl)-maleimide cross-linker
# Experiments:
# [1] = system: human smooth muscle cells; test: 125I-PDGF-BB binding inhibition assay, human smooth muscle cells (peptides); details: FIG. 2B
# Description: (§1) 3) Effect of PDGF Peptides on ^125I-PDGF-BB Binding to 3T3 Cells and Human Smooth Muscle Cells p PDGF-BB binding inhibition assay was performed as described by Engstrom et al. A murine fibroblast cell line 3T3.A31 and human aortic smooth muscle cells were used.
# Swiss 3T3.A31 = test: [3H]-thymidine uptake assay on fibroblast cells in culture; type: cell-based, murine; details: for stimulatory (mitogenic) effect, thymidine uptake: FIG. 1
# Description: 2) Effect of PDGF Peptides on Fibroblast Cells in Culture The stimulatory or inhibitory effect of the peptides on the murine fibroblast cell line Swiss 3T3.A31 were investigated using the [^3H]-thymidine uptake assay as described by Raines & Ross. The peptides were tested for their ability to stimulate thymidine uptake in the cells in culture.
# 3T3 cells = test: 125I-PDGF-BB binding inhibition assay, 3T3 cells; parameters: species or system murine; details: at the concentrations tested, FIG. 2A
# Description: as §1
# [2] = system: corresponding immunising peptide; test: ELISA titre of polyclonal antisera; type: binding; details: rabbits immunised with peptide linked to thyroglobulin, FIGS. 3A, 3B
# Description: (§2) Rabbits and mice were immunised with the peptides either in the free form mixed with Freund's adjuvant or conjugated to a carrier protein (Thyroglobulin or keyhole haemocyanin). Antisera were tested for antibody production to the peptides and PDGF using ELISA, dot blot assays and SDS-PAGE followed by Western blotting.
# PDGF = molecular target: T1, PDGF (Homo sapiens, UniProt P01127); test: Western blot vs native PDGF; type: binding; details: polyclonal antisera
# T1 construct: both chains undergo proteolytic cleavage at the N-termini during maturation; The B chain is also processed at the C-terminal end
# T1 sequence (P01127 82-190 limits assumed): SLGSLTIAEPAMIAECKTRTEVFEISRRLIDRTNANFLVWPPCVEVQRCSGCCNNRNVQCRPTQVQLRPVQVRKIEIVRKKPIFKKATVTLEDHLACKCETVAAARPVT
# Description: as §2
# PDGF β-receptors = PDGF β-receptors (Homo sapiens, UniProt P09619); details: reference [6]; cited from earlier work
# Sequence of PDGF β-receptors (P09619 33-1106): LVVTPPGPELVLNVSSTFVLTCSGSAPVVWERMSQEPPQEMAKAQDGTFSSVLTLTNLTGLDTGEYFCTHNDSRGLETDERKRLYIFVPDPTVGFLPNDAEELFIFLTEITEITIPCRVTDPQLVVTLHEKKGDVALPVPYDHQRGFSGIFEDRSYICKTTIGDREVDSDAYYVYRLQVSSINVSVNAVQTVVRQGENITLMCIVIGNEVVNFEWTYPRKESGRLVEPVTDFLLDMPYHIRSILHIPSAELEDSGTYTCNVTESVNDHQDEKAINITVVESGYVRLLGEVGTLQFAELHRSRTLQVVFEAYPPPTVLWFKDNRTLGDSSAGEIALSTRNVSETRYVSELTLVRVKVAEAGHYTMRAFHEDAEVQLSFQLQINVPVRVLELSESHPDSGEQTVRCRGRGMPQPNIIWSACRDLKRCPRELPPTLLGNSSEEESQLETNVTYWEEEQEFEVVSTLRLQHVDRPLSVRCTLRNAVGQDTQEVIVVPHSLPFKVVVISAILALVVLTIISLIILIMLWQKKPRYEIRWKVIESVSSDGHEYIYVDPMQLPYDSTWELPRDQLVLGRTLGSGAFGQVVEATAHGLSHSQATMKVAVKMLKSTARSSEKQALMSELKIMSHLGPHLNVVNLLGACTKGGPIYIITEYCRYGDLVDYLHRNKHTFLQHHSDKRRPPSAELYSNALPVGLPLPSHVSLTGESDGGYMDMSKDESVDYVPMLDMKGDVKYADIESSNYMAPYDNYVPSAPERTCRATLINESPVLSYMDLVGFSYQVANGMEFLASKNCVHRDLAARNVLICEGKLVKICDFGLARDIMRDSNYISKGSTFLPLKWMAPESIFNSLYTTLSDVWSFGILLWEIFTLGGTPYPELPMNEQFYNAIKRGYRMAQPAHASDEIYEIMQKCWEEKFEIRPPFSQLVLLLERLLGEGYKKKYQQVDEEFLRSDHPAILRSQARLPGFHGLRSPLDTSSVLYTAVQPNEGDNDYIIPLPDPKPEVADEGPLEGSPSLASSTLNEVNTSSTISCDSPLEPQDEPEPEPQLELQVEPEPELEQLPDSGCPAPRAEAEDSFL
# PDGF receptor = details: cited from earlier work
# [3] = system: smooth muscle cells of injured arteries; details: administration of PDGF, rat, reference [19]; cited from earlier work
# large bed sores = details: locally applied, reference [31]; cited from earlier work
substance,measurement,setting,value
Ac-^25I-S-R-R-L-I-D-R-T-N-A-N-F-L^38-(G-G-G-G-G-G)-^73R-K-I-E-I-V-R-K-K^81-C [GP14],inhibition of labelled PDGF binding to human smooth muscle cells,[1],potent inhibitors
Ac-^25I-S-R-R-L-I-D-R-T-N-A-N-F-L^38-C (Ac-ISRRLIDRTNANFLC) [GP4],"stimulatory (mitogenic) effect, thymidine uptake",Swiss 3T3.A31,highest stimulatory effect
same,mitogenic effect upon reduction and alkylation of the C-terminal end cysteine residue,Swiss 3T3.A31; reduced and alkylated peptide,almost completely abolished
same,inhibition of binding of radiolabelled PDGF-BB to 3T3 cells,3T3 cells,modest inhibition
same,antibodies to the corresponding immunising peptide by ELISA,[2],high titre antibodies
same,antibodies produced by the peptide reacted with native PDGF (Western immunoblot),PDGF,reacted with the native PDGF
ANFLVW—EIVRKKP [literature peptide corresponding to PDGF-B chain residues 35-40 and 78-83],antagonist for PDGF,PDGF β-receptors,effective as an antagonist for PDGF
polylysin,inhibition of PDGF binding to its receptor,PDGF receptor,inhibit PDGF binding to its receptor
protamine sulphate,inhibition of PDGF binding to its receptor,PDGF receptor,inhibit PDGF binding to its receptor
"PDGF: 28-31 KD dimeric, highly basic glycoprotein, mitogen for connective tissue cells",SMC migration from the media to the intima,[3],20 fold
same,SMC proliferation in the media,[3],2-3 fold
same,healing of large bed sores,large bed sores,stimulates the healing of large bed sores
^73R-K-I-E-I-V-R-K-K-P-I-F-K-K-A-T-V^89 (RKIEIVRKKPIFKKATV) [GP21a],antibodies produced by the peptide reacted with native PDGF (Western immunoblot),PDGF,reacted with the native PDGF
Ac-^25I-S-R-R-L-I-D-R-T-N-A-N-F-L^38 (Ac-ISRRLIDRTNANFL) [GP2],"stimulatory (mitogenic) effect, thymidine uptake",Swiss 3T3.A31,low stimulatory effect
AC-^73R-K-I-E-I-V-R-K-K^81-C (Ac-RKIEIVRKKC) [GP8],"stimulatory (mitogenic) effect, thymidine uptake",Swiss 3T3.A31,not as stimulatory as GP4
same,inhibition of binding of radiolabelled PDGF-BB to 3T3 cells,3T3 cells,modest inhibition
same,antibodies to the corresponding immunising peptide by ELISA,[2],high titre antibodies
Ac-^25I-S-R-R-L-I-D-R-T-N-A-N-F-L-V-W-P-P-C^43-(SMCC)-^73R-K-I-E-I-V-R-K-K^81-C (Ac-ISRRLIDRTNANFLVWPPC(SMCC)RKIEIVRKKC; also: SMCC joins Cys43 (pos 19) to Arg73 (pos 20) in place of a peptide bond) [GP20],inhibition of labelled PDGF binding to human smooth muscle cells,[1],potent inhibitors

# Source: US6350731B1, “Platelet-derived growth factor analogues” (Trigen Limited, priority 1993, dated 2002)
